Results published in PubChem BioAssay (NCI).
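Tested at 5 concentrations; 48 h exposure; 96-well plates; endpoints linearly interpolated, else capped at highest concentration. Abbreviation: GI50, concentration required for 50% inhibition of growth. The concentration for full growth arrest is given as TGI.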

Key:
Assay in all cases: inhibition of tumour cell growth, NCI panel, 48 h
786-0 renal = system: 786-0 renal
HCC-2998 colon = system: HCC-2998 colon
HS 578T breast = system: HS 578T breast
K-562 leukemia = system: K-562 leukemia
MDA-MB-435 = system: MDA-MB-435
NCI-H460 lung = system: NCI-H460 lung
OVCAR-5 ovarian = system: OVCAR-5 ovarian
RPMI-8226 leukemia = system: RPMI-8226 leukemia
SK-MEL-2 melanoma = system: SK-MEL-2 melanoma
SNB-75 CNS = system: SNB-75 CNS

Structure (SMILES) | GI50 (786-0 renal) [µM] | TGI (786-0 renal) [µM] | GI50 (HCC-2998 colon) [µM] | TGI (HCC-2998 colon) [µM] | GI50 (HS 578T breast) [µM] | TGI (HS 578T breast) [µM] | GI50 (K-562 leukemia) [µM] | TGI (K-562 leukemia) [µM] | GI50 (MDA-MB-435) [µM] | TGI (MDA-MB-435) [µM] | GI50 (NCI-H460 lung) [µM] | TGI (NCI-H460 lung) [µM] | GI50 (OVCAR-5 ovarian) [µM] | TGI (OVCAR-5 ovarian) [µM] | GI50 (RPMI-8226 leukemia) [µM] | TGI (RPMI-8226 leukemia) [µM] | GI50 (SK-MEL-2 melanoma) [µM] | TGI (SK-MEL-2 melanoma) [µM] | GI50 (SNB-75 CNS) [µM] | TGI (SNB-75 CNS) [µM]
ClCc1cccc(Cn2cnc3ncnc(Cl)c32)c1 | 2.06 | 4.09 | 1.68 | 3.25 | 18.2 | 42.3 | 16.6 | 48.1 | 3.46 | 12.9 | 2.09 | 4.45 | 6.74 | 19.8 | 13.7 | 34.9 | 5.76 | 22.8 | 1.84 | 3.53
COc1ccc(-c2nnc(COc3ccc(NC(=O)Nc4cc(C(F)(F)F)cc(C(F)(F)F)c4)cc3F)o2)cc1 | 2.2 | 4.7 | 2.42 | 5.92 | 1.99 | 5.55 | 2.66 | 13.5 | 2.11 | 5 | 1.66 | 4.38 | 2.76 | 9.49 | 1.35 | 4.2 | 2.66 | 5.82 | 2.02 | 6.37
COc1ccc(/C=C(/C#N)n2nnc3cccc(F)c32)cc1 | 2.42 | > 100 | 1.83 | 7.14 | 1.66 | 6.41 | 0.352 | > 100 | 0.18 | 0.471 | 0.703 | 4.62 | 1.82 | 4.56 | 2.18 | > 100 | 0.653 | 21.9 | 0.206 | 0.638
COc1c(Cl)c(=O)oc2ccc(Cl)cc12 |  | > 100 |  | > 100 |  | > 100 |  | > 100 |  | > 100 |  | > 100 |  | > 100 |  | > 100 |  | > 100 |  | > 100
COc1cc2c3c(n(C)c(=O)c2cc1OC)-c1cc2c(cc1/C3=C\CCCN)OCO2 | 1.23 | 5.02 | 10.4 | 32.3 | 24.7 | 87.6 | 1.31 | 12 | 8.6 | 41.6 | 2.65 | > 100 | 3.75 | 26.2 |  |  | 16.6 | 45 | 11.2 | 31.6
CC[C@H](Nc1ncnc2nc[nH]c12)c1oc2ccccc2c(=O)c1-c1cccc(F)c1 | 21.4 | > 100 | 35.7 | > 100 | 14.1 | 86.9 | 17.4 | > 100 | 18.7 | 70.7 | 18.8 | 58.8 | 42.5 | > 100 | 14.5 | > 100 | 18.4 | 46.7 | 4.15 | 56.1
CSc1nc(NC2OCC(OC(C)=O)C(OC(C)=O)C2OC(C)=O)c(N=CC=Nc2c(NC3OCC(OC(C)=O)C(OC(C)=O)C3OC(C)=O)nc(SC)[nH]c2=O)c(=O)[nH]1 (stereo not drawn) |  | > 100 |  | > 100 |  | > 100 |  | > 100 |  | > 100 |  | > 100 |  | > 100 |  | > 100 |  | > 100 |  | 57.4
COc1cc2c(c(OC)c1OC)-c1ccc(OC)c(=O)cc1C(NC(=O)c1ccc(N=[N+]=[N-])cc1)CC2 (stereo not drawn) |  | > 100 |  | 0.0513 |  | > 100 |  | > 39.2 |  | 0.0473 |  | 0.0613 |  | > 100 |  | 4.41 |  |  |  | > 90.8
O=C1NCC2(CCN(CCCC3(c4ccc(F)cc4)OCCO3)CC2)N1c1ccccc1 |  | > 100 |  | > 100 |  | > 100 |  | > 100 |  | > 100 |  | > 100 |  | > 100 |  | > 100 |  | > 100 |  | > 100
Nc1ncnc2n[nH]c(Nc3ccc(F)cc3)c12 | 19.3 | > 100 | 51.9 | > 100 | 20.6 | > 100 | 15.6 | > 100 | 19.7 | 49.6 | 16.3 | > 100 | 60 | > 100 | 15.1 | > 100 | 14 | > 100 | 31.7 | > 100
O=C(/C=C/c1ccc(Cl)cc1)c1ccc(Nc2ccnc3cc(Cl)ccc23)cc1 | 38.1 | > 100 | > 80.5 | > 100 | 36.3 | > 100 | 4.98 | > 100 | 9.3 | > 100 | > 57.6 | > 100 | 22.1 | 68.5 | 2.08 | > 30.7 | > 100 | > 100 | > 100 | > 100
COC(=O)C1=C(C)NC(C)=C(C(=O)OCCCN2CCC(c3ccccc3)(c3ccccc3)CC2)C1c1cccc([N+](=O)[O-])c1 (stereo not drawn) |  | 2.99 |  | 4.58 |  | 4.57 |  | > 100 |  | 3.02 |  | 3.35 |  | 7.3 |  | 5.82 |  | 4.74 |  | 9.84
CCCCCCCCC/C=C1\CCC(CN2CCOCC2)C1=O (stereo not drawn) |  | 9.69 |  | 18.8 |  | 5.47 |  | 15.6 |  | 6.5 |  | 21.1 |  | 31.6 |  | 1.08 |  | 14.6 |  | 16
CCCC(=O)OC1CC(n2cc(F)c(=O)[nH]c2=O)OC1COP(=O)(OCC(Cl)(Cl)Cl)OCC(Cl)(Cl)Cl (stereo not drawn) |  | > 100 |  | 3.34 |  | 76.3 |  |  |  | > 100 |  | 28.8 |  | > 100 |  | 86.4 |  | > 100 |  | 76.6
Cc1ccc(S(=O)(=O)N/N=C/C2(c3ccccc3)c3ccccc3-c3ccccc32)cc1 |  | 31.2 |  | 26.3 |  | 39.3 |  | > 100 |  | 24.4 |  | 18.2 |  | 25.1 |  | 87.2 |  | 25.9 |  | 
Cc1cc(/C=C/c2ccc3cc(N(C)C)ccc3[n+]2C)c(C)n1-c1ccccc1 | 0.262 | 1.53 | 0.203 | 2.64 | 0.361 | 9.56 |  |  | 0.177 | 0.8 | 0.146 | 0.56 | 0.688 | 12.4 | 0.0698 | 0.696 | 0.27 | 1.06 | 0.211 | 1.9
